Reference: patent publication US11517512B2, “Personal care compositions comprising zinc : usnic acid complexes and methods of use” (Colgate-Palmolive Company, priority 2017, dated 2022)
≈ marks a conversion by molar mass, not a printed value.

Key:
Escherichia coli = experiment: Minimal inhibitory concentration, broth micro dilution method; format: cell-based; details: overnight incubation, OD 610 nm, stock in DMSO, read-out: MIC E. Coli (G−)
Experimental: (§1) Minimal inhibition concentration (MIC) is the lowest concentration of an antimicrobial agent that can inhibit the visible growth of a microorganism after overnight incubation. The MIC values of zinc:usnate complex and usnic acid against Staphylococcus aureus and Escherichia coli were determined with the broth micro dilution method. Briefly, 0.1% stock solutions were prepared in dimethyl sulfoxide (DMSO). Using a 96-well microtitre plate, the corresponding testing concentrations are 500, 250, 125, 62, 31, 16, 8, 4, 2, 1, 0.5 and 0.2 ppm, respectively. The optic density readings at 610 nm for each well were used to assess the level of bacterial growth.

Staphylococcus aureus = experiment: as above; format: cell-based; details: overnight incubation, OD 610 nm, stock in DMSO, read-out: MIC S. aureus (G+)
Experimental: as §1

[1] = DI water at 35° C.; Jin et al., J Solution Chem., 2013; cited from earlier work

For `CC(=O)c1c(O)c(C)c(O)c2c1OC1=CC(=O)C(C(C)=O)C(=O)C12C` (stereo not drawn) [Usnic Acid, usnic acid], the MIC (Escherichia coli) is listed as greater than 125 mg/L, the MIC (Staphylococcus aureus) is listed as 4 mg/L (≈ 11.6 µM) and the solubility [1] is listed as 6.3 ppm.
